Source: patent publication US7858738B2, “Synthetic human peptides and pharmaceutical compositions comprising them for the treatment of systemic lupus erythematosus” (Yeda Research and Development Co., Ltd., priority 2001, dated 2010)

Columns and labels:
PBL of SLE patients = experiment: Proliferative response of PBL of SLE patients to the human 16/6Id mAb; assay type: cell-based; conditions: PBL of one SLE patient; for inhibition of the proliferative responses of PBL to human 16/6Id mAb: FIG. 7, reversed murine peptides as controls
Description: (§1) Induction and treatment of experimental SLE. In order to induce experimental SLE, BALB/c mice were immunized with 1-2 μg of the human mAb 16/6Id and boosted 3 weeks later. For the prevention of experimental SLE, mice were given hCDR1 or hCDR3 (mCDR1 or revmCDR1 as control peptide in Example 12) intravenously (i.v.) or s.c. concomitant with the immunization, and were injected weekly thereafter for 5 weeks. Treatment of an established disease started three and a half months following disease induction with the 16/6Id, when clinical manifestations were already observed. In Example 12, mice received 10 weekly injections (i.v. or s.c.) of mCDR1 or revmCDR1 at a dose of 100 μg/mouse. Prevention and treatment of SLE-like disease in (NZB×NZW)F1 mice with the hCDR1 or mCDR1 peptide. For prevention of SLE, mice at the age of 2 months, before disease manifestations are observed, were injected s.c. with hCDR1 (or mCDR1 in Example 12, 250 μg/mouse) once a week for 10 weeks. To treat an established disease, mice at the age of 5-7 months were injected with hCDR1 (in Example 12, mCDR1 s.c., 250 μg/mouse) once a week for 10 weeks. Proliferative Responses. PBL were isolated from heparinized venous blood by Ficoll-Hypaque (Pharmacia) density-gradient centrifugation. All assays were performed, in triplicate, in flat-bottomed microtiter plates (Falcon, Becton Dickinson, Oxmard, Calif., USA) in which 2×10^5 PBL were cultured in enriched RPMI-1640 as described (Dayan et al., 2000). The PBL were exposed to various concentrations (0.1-40 μg/well) of the human anti-DNA 16/6Id mAb with and without the addition of the various CDR-based peptides at a concentration of at least 10-fold excess over that of the 16/6Id. Phytohemagglutinin (PHA; 2 μg/well) was used as a control for culture conditions at each experiment. The cultures were incubated in 7.5% CO2 at 37° C. for 6 days. Eighteen hours before the cells were harvested, [^3H]-thymidine (0.5μ Ci of 5 Ci/mmol) (Nuclear Research Center, Negev, Israel) was added to all cultures. Results are expressed as the mean thymidine incorporation in counts per minute (CPM) of triplicate culture±SD, or as stimulation index (S.I.; the ratio of mean CPM at the optimal concentration of the human 16/6Id to the mean CPM in the presence of medium alone). A S.I.≧2 was considered a positive response (Dayan et al., 2000). Inhibition (the ratio of mean CPM in the presence of the 16/6Id and various CDR-based peptides to the mean CPM with the 16/6Id without the CDR-based peptide) above 50% was considered positive. Induction of Cytokine Production. Mice that were immunized with the human 16/6Id mAb and either treated or not with the CDR-based peptide, were killed at different periods during or after treatment with the peptide. Splenocytes and lymph node cells (LNC) were harvested and incubated (5×10^6/ml) in the presence of the 16/6Id. Supernatants were collected after 48 and 72 h. Assessment of Cytokines in the Supernatants. Supernatants were collected 48 hours following the initiation of the cultures and stored at −70° C. Measurements of IL-2, IL-10, IFN-γ, and TNF-α were performed by ELISA by using the relevant standards, capture and detecting Abs (Pharmingen) according to the manufacturer's instructions. TGF-β was determined by an ELISA. Briefly, plates were coated with the recombinant human TGF-β1 sRIII/Fc chimera (R & D Systems Inc., Minneapolis, Minn., USA), and the second Ab used was the biotinylated anti-human TGF-β1 antibody (R & D Systems Inc.). The substrate solution used was TMB color Reagent (Helix Diagnostics, West Sacramento, Calif.), and enzyme activity was evaluated by using 570- and 630-nm filters. Detection of SLE-Associated Clinical and Pathological Manifestations. Proteinuria was measured semiquantitatively by using Combistix kit (Ames Division, Bayer Diagnostics, Newbury, U.K.). White blood cells (WBC, for leukopenia) were counted after a 10-fold dilution of heparinized blood in distilled water containing 1% acetic acid (vol/vol). […]

T cell priming = conditions: administered in PBS; Waisman et al., 1997; cited from earlier work
[1] = test system: SLE prone mice (NZB×NZW) F1 or MRL/lpr/lpr; conditions: Eilat et al., 2000 and 2001; cited from earlier work
MMP-9 [2] = experiment: MMP-9 activity in sera of (NZB×NZW)F1 mice (gel zymography); assay type: in vivo; conditions: for activity of MMP-9 in the sera: treatment of sick mice, FIG. 20B right
Description: as §1, with “A S.I.≧2 was considered a positive response (Dayan et al., 2000). Inhibition (the ratio of mean CPM in the presence of the 16/6Id and various CDR-based peptides to the mean CPM with the 16/6Id without the CDR-based peptide) above 50% was considered positive. Induction of Cytokine Production. Mice that were immunized with the human 16/6Id mAb and either treated or not with the CDR-based peptide, were killed at different periods during or after treatment with the peptide. Splenocytes and lymph node cells (LNC) were harvested and incubated (5×10^6/ml) in the presence of the 16/6Id. Supernatants were collected after 48 and 72 h. Assessment of Cytokines in the Supernatants. Supernatants were collected 48 hours following the initiation of the cultures and stored at −70° C. Measurements of IL-2, IL-10, IFN-γ, and TNF-α were performed by ELISA by using the relevant standards, capture and detecting Abs (Pharmingen) according to the manufacturer's instructions.” left out, “Briefly, plates were coated with the recombinant human TGF-β1 sRIII/Fc chimera (R & D Systems Inc., Minneapolis, Minn., USA), and the second Ab used was the biotinylated anti-human TGF-β1 antibody (R & D Systems Inc.).” left out, “Detection of SLE-Associated Clinical and Pathological Manifestations.” left out

MMP-3 [3] = experiment: MMP-3 levels in sera of 16/6Id immunized BALB/c mice (Western blot); assay type: in vivo; conditions: prevention and treatment protocols, 100 μg/mouse; FIG. 21A
Description: (§2) Induction and treatment of experimental SLE. In order to induce experimental SLE, BALB/c mice were immunized with 1-2 μg of the human mAb 16/6Id and boosted 3 weeks later. For the prevention of experimental SLE, mice were given hCDR1 or hCDR3 (mCDR1 or revmCDR1 as control peptide in Example 12) intravenously (i.v.) or s.c. concomitant with the immunization, and were injected weekly thereafter for 5 weeks. Treatment of an established disease started three and a half months following disease induction with the 16/6Id, when clinical manifestations were already observed. In Example 12, mice received 10 weekly injections (i.v. or s.c.) of mCDR1 or revmCDR1 at a dose of 100 μg/mouse. Prevention and treatment of SLE-like disease in (NZB×NZW)F1 mice with the hCDR1 or mCDR1 peptide. […] Results are expressed as the mean thymidine incorporation in counts per minute (CPM) of triplicate culture±SD, or as stimulation index (S.I.; the ratio of mean CPM at the optimal concentration of the human 16/6Id to the mean CPM in the presence of medium alone). […] TGF-β was determined by an ELISA. […] The substrate solution used was TMB color Reagent (Helix Diagnostics, West Sacramento, Calif.), and enzyme activity was evaluated by using 570- and 630-nm filters. […] Proteinuria was measured semiquantitatively by using Combistix kit (Ames Division, Bayer Diagnostics, Newbury, U.K.). […]

MMP-9 [4] = experiment: MMP-9 activity in sera of 16/6Id immunized BALB/c mice; assay type: in vivo; conditions: for MMP-9 activity in sera: prevention and treatment protocols, 100 μg/mouse, FIG. 21B
Description: as §2, with “peptide. For prevention of SLE, mice at the age of 2 months, before disease manifestations are observed, were injected s.c. with hCDR1 (or mCDR1 in Example 12, 250 μg/mouse) once a week for 10 weeks. To treat an established disease, mice at the age of 5-7 months were injected with hCDR1 (in Example 12, mCDR1 s.c., 250 μg/mouse) once a week for 10 weeks. Proliferative Responses. PBL were isolated from heparinized venous blood by Ficoll-Hypaque (Pharmacia) density-gradient centrifugation.” for “peptide.”, “U.K.). White blood cells (WBC, for leukopenia) were counted after a 10-fold dilution of heparinized blood in distilled water containing 1% acetic acid (vol/vol).” for “U.K.).”

MMP-3 [5] = experiment: MMP-3 levels in sera of (NZB×NZW)F1 mice (Western blot); assay type: in vivo
Description: as §2, with “peptide. For prevention of SLE, mice at the age of 2 months, before disease manifestations are observed, were injected s.c. with hCDR1 (or mCDR1 in Example 12, 250 μg/mouse) once a week for 10 weeks. To treat an established disease, mice at the age of 5-7 months were injected with hCDR1 (in Example 12, mCDR1 s.c., 250 μg/mouse) once a week for 10 weeks. Proliferative Responses. PBL were isolated from heparinized venous blood by Ficoll-Hypaque (Pharmacia) density-gradient centrifugation.” for “peptide.”, “U.K.). White blood cells (WBC, for leukopenia) were counted after a 10-fold dilution of heparinized blood in distilled water containing 1% acetic acid (vol/vol).” for “U.K.).”

MMP-3 [6] = experiment: MMP-3 immunostaining of kidney sections of 16/6Id immunized BALB/c mice; assay type: in vivo; conditions: prevention and treatment experiments; glomeruli and interstitium; FIG. 22
Description: as §2

MMP-9 [7] = experiment: MMP-9 immunostaining of kidney sections of 16/6Id immunized BALB/c mice; assay type: in vivo; conditions: prevention and treatment experiments; glomeruli and interstitium; FIG. 22
Description: as §2

(NZB×NZW)F1 mice [8] = experiment: Treatment of established SLE-like disease in (NZB×NZW)F1 mice; assay type: in vivo; conditions: 300 μg/mouse, age 7 months
Description: as §1

BALB/c mice = experiment: Treatment of 16/6Id-induced experimental SLE in BALB/c mice; assay type: in vivo; conditions: Table 12, 300 μg/mouse weekly
Description: as §1

(NZB×NZW)F1 mice [9] = experiment: Transfer of splenocytes of peptide-treated mice into (NZB×NZW)F1 mice with full-blown disease; assay type: in vivo; conditions: Table 14 (repeat experiment), recipients of 20 × 10^6 spleen cells from treated mice
Description: It was of importance to investigate whether the beneficial effects of treatment with hCDR1, that are manifested by the down-regulation of disease manifestations, can be transferred by spleen cells of treated mice. To this end, we have performed an experiment in which 8-month old (NZB×NZW)F1 mice, that suffer already from the full-blown lupus-like disease, were divided into 2 groups. Group 1 was not treated and mice of group 2 were transferred with 20×10^6 spleen cells of 3-month old (NZB×NZW)F1 mice that were injected 3 times (s.c., every other day) with 300 μg/mouse of hCDR1. All splenocytes were injected intraperitoneally. Mice were tested for anti-dsDNA autoantibody production, disease manifestations, and were sacrificed 4 weeks after cell transfer.
The experiment was repeated a few more times using revhCDR1 as control.

YYCARFLWEPYAMDYWGQGS (Murine) [mCDR3, murine peptide based on CDR3 of the VH chain of murine mAb 5G12]
inhibition of the proliferative responses of PBL to the human 16/6Id mAb (PBL of SLE patients; FIG. 6): did not inhibit
T cell priming to the appropriate mCDR peptide or to the whole anti-DNA 16/6Id mAb (T cell priming): inhibiting T cell priming
prevention or treatment of SLE induced by human 16/6Id mAb or spontaneous [1]: either prevent or treat an already established SLE

GIWELSKEPSQKVWQMYYGT (Synthetic peptide prepared in the reversed order of SEQ ID NO 1.) [revmCDR1, control peptide synthesized in the reversed order of mCDR1]
inhibition of the proliferative responses of PBL to human 16/6Id mAb (PBL of SLE patients): failed to inhibit significantly
activity of MMP-9 in the sera (MMP-9 [2]): not
levels of MMP-3 in sera (MMP-3 [3]): did not affect
MMP-9 activity in sera (MMP-9 [4]): did not affect

TGYYMQWVKQSPEKSLEWIG [mCDR1]
two lower bands of MMP-3 in the serum (MMP-3 [5]; prevention protocol: 250 μg/mouse s.c. weekly for 10 weeks from age 2 months, FIG. 20A): reduction
levels of MMP-3 in the sera (MMP-3 [5]; treatment of sick mice, FIG. 20A right): specifically down-regulated
MMP-9 activity in the serum (MMP-9 [2]; prevention protocol: 250 μg/mouse s.c. weekly for 10 weeks from age 2 months, FIG. 20B): reduction
activity of MMP-9 in the sera (MMP-9 [2]): specifically down-regulated
levels of MMP-3 in sera (MMP-3 [3]): could down regulate
activity of sera comparable to pure active MMP-9 (MMP-9 [4]; MMP-9 activity assay system, preliminary, unimmunized 7 ng/ml, 16/6Id immunized 16 ng/ml): 8.5 ng/mL
MMP-9 activity in sera (MMP-9 [4]): could down regulate
expression levels of MMP-3 in the kidneys (MMP-3 [6]): down-regulated
expression levels of MMP-9 in the kidneys (MMP-9 [7]): down-regulated
T cell priming to the appropriate mCDR peptide or to the whole anti-DNA 16/6Id mAb (T cell priming): inhibiting T cell priming
prevention or treatment of SLE induced by human 16/6Id mAb or spontaneous [1]: either prevent or treat an already established SLE

SGQGWYDMAYPEWLFRACYY (Synthetic peptide prepared in reversed order of SEQ ID NO 3.) [revmCDR3, control peptide synthesized in the reversed order of mCDR3, reference compound]
inhibition of the proliferative responses of PBL to human 16/6Id mAb (PBL of SLE patients): failed to inhibit significantly

GIWEEGKGPPQRIWSWYYG (Synthetic peptide prepared in the reversed order of SEQ ID NO 6.) [revhCDR1, control peptide synthesized in the reversed order of hCDR1, reference compound]
Proteinuria g/L ± SEM ((NZB×NZW)F1 mice [8]; following treatment No 5, untreated 2.65 ± 1.76): 6.94 ± 2.53 g/L
Proteinuria g/L ± SEM ((NZB×NZW)F1 mice [8]; following treatment No 7, untreated 3.89 ± 2.73): 6.76 ± 2.91 g/L
Proteinuria g/L ± SEM ((NZB×NZW)F1 mice [8]; following treatment No 9, untreated 7.55 ± 3.95): 5.99 ± 3.08 g/L
Anti-dsDNA antibodies 1:1250, Mean ± SD (BALB/c mice; 16/6Id alone 0.47 ± 0.3): 0.35 ± 0.3
Proteinuria g/l, Mean ± SD (BALB/c mice; 16/6Id alone 0.58 ± 0.34): 0.8 ± 0.3 g/L
Anti-16/6 Id antibodies 1:10000, Mean ± SD (BALB/c mice; 16/6Id alone 0.89 ± 0.1): 0.95 ± 0.13
Intensity of ICD in kidneys, Mean ± SD (BALB/c mice; 16/6Id alone 1.6 ± 0.55): 0.85 ± 0.75
WBC/mm^3, Mean ± SD (BALB/c mice; 16/6Id alone 2800 ± 300): 4180 ± 831 /mm^3
I.C.D ± SEM ((NZB×NZW)F1 mice [9]; non-treated 2.3 ± 0.26): 1.7 ± 0.23
Proteinuria g/L ± SEM ((NZB×NZW)F1 mice [9]; non-treated 10.9 ± 3.05): 5.38 ± 2.34 g/L
